Results: patent US10485235B2, “Aryloxypyrimidinyl ethers as herbicides” (FMC Corporation, priority 2015, dated 2019)

How the values were obtained:
Format in all cases: in vivo
[1] = test system: wheat (Triticum aestivum); assay: Test A postemergence, wheat
Outline: (§1)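 Injury was assessed visually about ten days after application, relative to untreated plants, with 0 meaning no effect and 100 complete control. Treatments were soil-directed sprays after sowing (pre) or sprays on seedlings at one to two leaves (post), in loam soil/sand.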

[2] = test system: kochia (Kochia scoparia); assay: Test A preemergence, kochia; settings: Preemergence, 0 to 100 scale (0 no effect, 100 complete control)
Outline: as §1

[3] = test system: ryegrass, Italian (Italian ryegrass, Lolium multiflorum); assay: Test A postemergence, Italian ryegrass
Outline: as §1

[4] = test system: barnyardgrass (Echinochloa crus-galli); assay: Test A preemergence, barnyardgrass; settings: Preemergence, 0 to 100 scale (0 no effect, 100 complete control)
Outline: as §1

[5] = test system: rice (Oryza sativa); assay: Test B flooded paddy test, rice; settings: 250 g ai/ha, Flood; visual rating after 13 to 15 days; scale 0 to 100, 0 is no effect, 100 is complete control
Outline: (§2)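 Visual ratings, 0 = no effect to 100 = complete control, versus controls after 13 to 15 days in greenhouse. Test compounds were added to paddy water kept 3 cm over the soil surface, on plants at 2-leaf stage.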

[6] = test system: ryegrass, Italian (Italian ryegrass, Lolium multiflorum); assay: Test A preemergence, Italian ryegrass; settings: Preemergence, 0 to 100 scale (0 no effect, 100 complete control)
Outline: as §1

[7] = test system: ragweed (common ragweed, Ambrosia elatior); assay: Test A postemergence, ragweed
Outline: as §1

[8] = test system: pigweed (Amaranthus retroflexus); assay: Test A preemergence, pigweed; settings: Preemergence, 0 to 100 scale (0 no effect, 100 complete control)
Outline: as §1

[9] = test system: foxtail, giant (giant foxtail, Setaria faberii); assay: Test A postemergence, giant foxtail
Outline: as §1

[10] = test system: ducksalad (Heteranthera limosa); assay: Test B flooded paddy test, ducksalad; settings: 250 g ai/ha, Flood; visual rating after 13 to 15 days; scale 0 to 100, 0 is no effect, 100 is complete control
Outline: as §2

[11] = test system: barnyardgrass (Echinochloa crus-galli); assay: Test B flooded paddy test, barnyardgrass; settings: 250 g ai/ha, Flood; visual rating after 13 to 15 days; scale 0 to 100, 0 is no effect, 100 is complete control
Outline: as §2

[12] = test system: blackgrass (Alopecurus myosuroides); assay: Test A postemergence, blackgrass
Outline: as §1

[13] = test system: corn (Zea mays); assay: Test A postemergence, corn
Outline: as §1

[14] = test system: pigweed (Amaranthus retroflexus); assay: Test A postemergence, pigweed
Outline: as §1

[15] = test system: ragweed (common ragweed, Ambrosia elatior); assay: Test A preemergence, ragweed; settings: Preemergence, 0 to 100 scale (0 no effect, 100 complete control)
Outline: as §1

[16] = test system: sedge, umbrella (small-flower umbrella sedge, Cyperus difformis); assay: Test B flooded paddy test, umbrella sedge; settings: 250 g ai/ha, Flood; visual rating after 13 to 15 days; scale 0 to 100, 0 is no effect, 100 is complete control
Outline: as §2

[17] = test system: barnyardgrass (Echinochloa crus-galli); assay: Test A postemergence, barnyardgrass
Outline: as §1

[18] = test system: foxtail, giant (giant foxtail, Setaria faberii); assay: Test A preemergence, giant foxtail; settings: Preemergence, 0 to 100 scale (0 no effect, 100 complete control)
Outline: as §1

[19] = test system: galium (catchweed bedstraw, Galium aparine); assay: Test A postemergence, galium
Outline: as §1

[20] = test system: kochia (Kochia scoparia); assay: Test A postemergence, kochia
Outline: as §1

[21] = 125 g ai/ha, postemergence, 0 to 100 scale, 0 is no effect, 100 is complete control, approximately 10 days
[22] = 500 g ai/ha, postemergence, 0 to 100 scale, 0 is no effect, 100 is complete control, approximately 10 days
[23] = Postemergence, 31 g ai/ha, 0 to 100 scale (0 no effect, 100 complete control)
[24] = 31 g ai/ha, postemergence, 0 to 100 scale, 0 is no effect, 100 is complete control, approximately 10 days

Row | Compound | Plant response rating, Wheat [1, 21] | Plant response rating, Kochia ([2]; 125 g ai/ha) | Plant response rating, Ryegrass, Italian [3, 21] | Plant response rating, Barnyardgrass ([4]; 125 g ai/ha) | Plant response rating, Rice [5] | Plant response rating, Ryegrass, Italian ([6]; 125 g ai/ha) | Plant response rating, Ragweed [7, 21] | Plant response rating, Pigweed ([8]; 125 g ai/ha) | Plant response rating, Foxtail, Giant [9, 21] | Plant response rating, Ducksalad [10] | Plant response rating, Barnyardgrass [11] | Plant response rating, Blackgrass [12, 21] | Plant response rating, Corn [13, 21] | Plant response rating, Pigweed [14, 21] | Plant response rating, Ragweed ([15]; 125 g ai/ha) | Plant response rating, Sedge, Umbrella [16] | Plant response rating, Barnyardgrass [17, 21] | Plant response rating, Foxtail, Giant ([18]; 125 g ai/ha) | Plant response rating, Galium [19, 21] | Plant response rating, Kochia [20, 21] | other results
1 | N#Cc1cccc(Oc2ncc(Cl)cn2)c1OCc1cccc(Cl)c1 [Compound 21] | 0 | 0 | 0 | 0 | 0 | 0 | 10 | 10 | 10 | 0 | 0 | 0 | 10 | 50 | 0 | 0 | 10 | 40 | 20 | 40 | Plant response rating, Wheat [1, 22]: 10; Plant response rating, Kochia ([2]; 500 g ai/ha): 30; Plant response rating, Ryegrass, Italian [3, 22]: 0; Plant response rating, Barnyardgrass ([4]; 500 g ai/ha): 10; Plant response rating, Ryegrass, Italian ([6]; 500 g ai/ha): 10; Plant response rating, Ragweed [7, 22]: 20; Plant response rating, Pigweed ([8]; 500 g ai/ha): 40; Plant response rating, Foxtail, Giant [9, 22]: 40; Plant response rating, Blackgrass [12, 22]: 20; Plant response rating, Corn [13, 22]: 20; Plant response rating, Pigweed [14, 22]: 60; Plant response rating, Ragweed ([15]; 500 g ai/ha): 0; Plant response rating, Barnyardgrass [17, 22]: 20; Plant response rating, Foxtail, Giant ([18]; 500 g ai/ha): 100; Plant response rating, Galium [19, 22]: 70; Plant response rating, Kochia [20, 22]: 70
2 | N#Cc1cccc(Oc2ncc(Cl)cn2)c1OCC(F)(F)C(F)F [Compound 14] | 20 | 90 | 10 | 90 | 0 | 10 | 10 | 100 | 80 | 0 | 0 | 60 | 20 | 100 | 0 | 0 | 80 | 100 | 50 | 100 | Plant response rating, Wheat [1, 22]: 40; Plant response rating, Kochia ([2]; 500 g ai/ha): 100; Plant response rating, Ryegrass, Italian [3, 22]: 50; Plant response rating, Barnyardgrass ([4]; 500 g ai/ha): 100; Plant response rating, Ryegrass, Italian ([6]; 500 g ai/ha): 70; Plant response rating, Ragweed [7, 22]: 20; Plant response rating, Pigweed ([8]; 500 g ai/ha): 100; Plant response rating, Foxtail, Giant [9, 22]: 100; Plant response rating, Blackgrass [12, 22]: 90; Plant response rating, Corn [13, 22]: 50; Plant response rating, Pigweed [14, 22]: 100; Plant response rating, Ragweed ([15]; 500 g ai/ha): 0; Plant response rating, Barnyardgrass [17, 22]: 100; Plant response rating, Foxtail, Giant ([18]; 500 g ai/ha): 100; Plant response rating, Galium [19, 22]: 100; Plant response rating, Kochia [20, 22]: 100
3 | N#CCCCOc1c(I)cccc1Oc1ncc(Cl)cn1 [Compound 67] | 0 | 80 | 10 | 30 | 10 | 20 | 10 | 100 | 30 | 100 | 0 | 30 | 20 | 100 | 0 | 95 | 30 | 100 | 50 | 100 | Plant response rating, Wheat [1, 23]: 0; Plant response rating, Kochia ([2]; 31 g ai/ha): 20; Plant response rating, Ryegrass, Italian [3, 23]: 0; Plant response rating, Barnyardgrass ([4]; 31 g ai/ha): 0; Plant response rating, Ryegrass, Italian ([6]; 31 g ai/ha): 0; Plant response rating, Ragweed [7, 23]: 0; Plant response rating, Pigweed ([8]; 31 g ai/ha): 50; Plant response rating, Foxtail, Giant [9, 23]: 10; Plant response rating, Blackgrass [12, 23]: 0; Plant response rating, Corn [13, 23]: 10; Plant response rating, Pigweed [14, 23]: 60; Plant response rating, Ragweed ([15]; 31 g ai/ha): 0; Plant response rating, Barnyardgrass [17, 23]: 0; Plant response rating, Foxtail, Giant ([18]; 31 g ai/ha): 60; Plant response rating, Galium [19, 23]: 30; Plant response rating, Kochia [20, 23]: 60
4 | N#CCCCOc1c(Cl)cccc1Oc1ncc(Cl)cn1 [Compound 45] | 0 | 30 | 0 | 10 | 0 | 0 | 10 | 70 | 10 | 20 | 0 | 0 | 10 | 50 | 0 | 0 | 10 | 30 | 20 | 50 | Plant response rating, Wheat [1, 24]: 0; Plant response rating, Kochia ([2]; 31 g ai/ha): 0; Plant response rating, Ryegrass, Italian [3, 24]: 0; Plant response rating, Barnyardgrass ([4]; 31 g ai/ha): 0; Plant response rating, Ryegrass, Italian ([6]; 31 g ai/ha): 0; Plant response rating, Ragweed [7, 24]: 10; Plant response rating, Pigweed ([8]; 31 g ai/ha): 20; Plant response rating, Foxtail, Giant [9, 24]: 0; Plant response rating, Blackgrass [12, 24]: 0; Plant response rating, Corn [13, 24]: 0; Plant response rating, Pigweed [14, 24]: 20; Plant response rating, Ragweed ([15]; 31 g ai/ha): 0; Plant response rating, Barnyardgrass [17, 24]: 0; Plant response rating, Foxtail, Giant ([18]; 31 g ai/ha): 0; Plant response rating, Galium [19, 24]: 10; Plant response rating, Kochia [20, 24]: 20
5 | Cc1cccc(Oc2ncc(Cl)cn2)c1OCCCC#N [Compound 70] | 0 | 20 | 0 | 70 | 0 | 0 | 20 | 50 | 0 | 70 | 0 | 0 | 20 | 40 | 0 | 50 | 30 | 30 | 20 | 30 | Plant response rating, Wheat [1, 23]: 0; Plant response rating, Kochia ([2]; 31 g ai/ha): 0; Plant response rating, Ryegrass, Italian [3, 23]: 0; Plant response rating, Barnyardgrass ([4]; 31 g ai/ha): 0; Plant response rating, Ryegrass, Italian ([6]; 31 g ai/ha): 0; Plant response rating, Ragweed [7, 23]: 0; Plant response rating, Pigweed ([8]; 31 g ai/ha): 0; Plant response rating, Foxtail, Giant [9, 23]: 0; Plant response rating, Blackgrass [12, 23]: 0; Plant response rating, Corn [13, 23]: 0; Plant response rating, Pigweed [14, 23]: 20; Plant response rating, Ragweed ([15]; 31 g ai/ha): 0; Plant response rating, Barnyardgrass [17, 23]: 0; Plant response rating, Foxtail, Giant ([18]; 31 g ai/ha): 0; Plant response rating, Galium [19, 23]: 0; Plant response rating, Kochia [20, 23]: 20
